Test [1] concerns Candida albicans. Kind of test: Antifungal activity against Candida albicans at 200 ug/disk after 48 hrs by disk diffusion method. Format: functional, organism-based.
For test [2], the system named is Candida albicans. Kind of test: Antifungal activity against Candida albicans after 48 hrs by microdilution susceptibility method. Type of test: functional, organism-based.
Test [3] in a line: Antitumor activity against human non small cell lung cancer cells after 48 hrs by SRB assay. The settings on record: Cancer cell lines. Type of test: functional.
The nature of test [4]: Antitumor activity against human renal cancer cells after 48 hrs by SRB assay. The following applies: Cancer cell lines. Type of test: functional.
Test [5] deals with T1, Dihydrofolate reductase (Bos taurus, UniProt P00376).
T1 sequence (P00376 whole entry): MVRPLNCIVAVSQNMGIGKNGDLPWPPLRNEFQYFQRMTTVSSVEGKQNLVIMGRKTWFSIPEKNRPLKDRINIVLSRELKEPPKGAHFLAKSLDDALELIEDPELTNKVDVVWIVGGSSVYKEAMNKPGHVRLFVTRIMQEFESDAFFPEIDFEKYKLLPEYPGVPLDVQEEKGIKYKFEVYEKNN
Description: Inhibition of bovine DHFR after 2 mins

The test system of another test is OVCAR-4. Kind of test: Antitumor activity against human OVCAR4 cells after 48 hrs by SRB assay. Format: functional. The following applies: OVCAR-4, 48 h.
Test [6] can be described thus: Antitumor activity against human CNS cancer cells after 48 hrs by SRB assay. Type of test: functional. The settings on record: Cancer cell lines.
The next test concerns HT-29. Kind of test: Antitumor activity against human HT-29 cells after 48 hrs by SRB assay. Format: functional. The settings on record: HT-29, 48 h.
Test [7] in a line: Antitumor activity against human breast cancer cells after 48 hrs by SRB assay. Format: functional. The following applies: Cancer cell lines.
A short description of test [8]: Antitumor activity against human leukemia cells after 48 hrs by SRB assay. Format: functional. The following applies: Leukemia cell.
Test [9] can be described thus: Antitumor activity against human melanoma cells after 48 hrs by SRB assay. Type of test: functional. The settings on record: Melanoma cell.
A short description of test [10]: Antitumor activity against human colon cancer cells after 48 hrs by SRB assay. Format: functional. The following applies: Cancer cell lines.
Test [11] in a line: Antitumor activity against human ovarian cancer cells after 48 hrs by SRB assay. Format: functional. The following applies: Cancer cell lines.
Test [12] concerns the target T2, Dihydrofolate reductase (Homo sapiens, UniProt P00374).
T2 sequence (P00374 whole entry): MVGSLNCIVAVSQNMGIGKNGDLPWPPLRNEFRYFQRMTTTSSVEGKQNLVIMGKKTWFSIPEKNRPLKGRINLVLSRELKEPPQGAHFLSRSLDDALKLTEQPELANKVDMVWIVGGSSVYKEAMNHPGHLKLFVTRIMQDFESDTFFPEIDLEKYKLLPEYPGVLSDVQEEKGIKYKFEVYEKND
Description: Inhibition of human DHFR after 2 mins

The nature of test [13]: Antitumor activity against human prostate cancer cells after 48 hrs by SRB assay. Type of test: functional. The settings on record: Cancer cell lines.
For test [14], the system named is Bacillus subtilis. Kind of test: Antibacterial activity against Bacillus subtilis after 24 hrs by microdilution susceptibility method. Format: functional.
The test system of test [15] is Staphylococcus aureus. Kind of test: Antibacterial activity against Staphylococcus aureus at 100 ug/disk after 24 hrs by disk diffusion method. Type of test: functional.
For test [16], the system named is Bacillus subtilis. Kind of test: Antibacterial activity against Bacillus subtilis at 100 ug/disk after 24 hrs by disk diffusion method. Type of test: functional.
Test [17] relates to Bacillus subtilis. Kind of test: Antibacterial activity against Bacillus subtilis at 200 ug/disk after 24 hrs by disk diffusion method. Format: functional. The settings on record: for zone of inhibition at 200 µg/disc: read-out: DIZ.
The test system of test [18] is Staphylococcus aureus. Kind of test: Antibacterial activity against Staphylococcus aureus after 24 hrs by microdilution susceptibility method. Format: functional.
Test [19] relates to Escherichia coli. Kind of test: Antibacterial activity against Escherichia coli at 200 ug/disk after 24 hrs by disk diffusion method. Type of test: functional. The following applies: for zone of inhibition at 200 µg/disc: read-out: DIZ.
The subject of test [20] is Escherichia coli. Kind of test: Antibacterial activity against Escherichia coli after 24 hrs by microdilution susceptibility method. Format: functional.
For test [21], the system named is Micrococcus luteus. Kind of test: Antibacterial activity against Micrococcus luteus at 200 ug/disk after 24 hrs by disk diffusion method. Type of test: functional.
The subject of test [22] is Staphylococcus aureus. Kind of test: Antibacterial activity against Staphylococcus aureus at 200 ug/disk after 24 hrs by disk diffusion method. Type of test: functional. The settings on record: for zone of inhibition at 200 µg/disc: read-out: DIZ.
In test [23] the test system is Pseudomonas aeruginosa. Kind of test: Antibacterial activity against Pseudomonas aeruginosa at 200 ug/disk after 24 hrs by disk diffusion method. Type of test: functional.
Test [24] relates to Micrococcus luteus. Kind of test: Antibacterial activity against Micrococcus luteus after 24 hrs by microdilution susceptibility method. Type of test: functional.
The test system of the next test is MDA-MB-468. Kind of test: Antitumor activity against human MDA-MB-468 cells after 48 hrs by SRB assay. Type of test: functional. The settings on record: MDA-MB-468, 48 h.
The subject of test [25] is Pseudomonas aeruginosa. Kind of test: Antibacterial activity against Pseudomonas aeruginosa after 24 hrs by microdilution susceptibility method. Format: functional.

In brackets after ≈: the same amount, converted by molar mass. Activity calls are given as the source filed them. No cut-off for these calls is given here.

As for `O=C(/C=C/c1ccccc1)Nc1ccc2nc(SC/C=C/c3ccccc3)n(Cc3ccccc3)c(=O)c2c1`, the result in the test with Candida albicans [1] and in the test with Candida albicans [2] was inactive. Further, the GI50 in [3] stood at 2.2 µM; in test [4] it was 2.6 µM; with OVCAR-4 it was 0.4 µM; in test [6], 3 µM; in the test on HT-29 it was 0.6 µM; in test [7] it was 2.5 µM. The GI50 in [8] is over 100 µM; in test [9] it was 2.2 µM; in test [10], 1.9 µM; in test [11], 3.3 µM; in test [13] it was over 100 µM. In addition, the TGI in test [3] was 76.4 µM; in [4] it was 68 µM; in test [6], 37 µM; in test [7], 68.6 µM; in test [8] it was over 100 µM; in test [9] it was 86.9 µM. Also, the TGI in test [10], in test [11] and in test [13] was over 100 µM in each case. Also, the IC50 against Dihydrofolate reductase [5] turned out to be 0.9 µM; against Dihydrofolate reductase [12] it was 0.5 µM.
In the case of `CC(=O)NS(=O)(=O)c1ccc(N)cc1` [SULFACETAMIDE], the values for the IC50 on Dihydrofolate reductase [5] and on Dihydrofolate reductase [12] were 22 µM and 18 µM, respectively. The MIC worked out at 2 mg/L (≈ 9.34 µM) against Bacillus subtilis [14] and 1 mg/L (≈ 4.67 µM) in the test with Staphylococcus aureus [18]. Besides, the zone of inhibition at 100 µg/disc with Staphylococcus aureus [15] (read-out: DIZ) worked out at 28 mm; in the test on Bacillus subtilis [16] (read-out: DIZ) it was 25 mm. The zone of inhibition at 200 µg/disc with Bacillus subtilis [17] worked out at 25 mm.
Regarding `C=CCSc1nc2ccc(NC/C=C/c3ccccc3)cc2c(=O)n1Cc1ccccc1`, the result in the test with Candida albicans [1] and in the test with Candida albicans [2] was inactive. Also, the IC50 against Dihydrofolate reductase [5] was 5 µM; at Dihydrofolate reductase [12], 3 µM. The zone of inhibition at 200 µg/disc came out at 18 mm with Escherichia coli [19]; 16 mm in the test on Micrococcus luteus [21] (Micrococcus luteus, 24 h, read-out: DIZ); 19 mm in the test with Staphylococcus aureus [22]; 20 mm with Bacillus subtilis [17]. Further, the MIC against Bacillus subtilis [14] amounted to 4 mg/L (≈ 9.1 µM); against Escherichia coli [20], 8 mg/L (≈ 18.2 µM); with Staphylococcus aureus [18] it was 8 mg/L (≈ 18.2 µM); against Micrococcus luteus [24] it was 16 mg/L (≈ 36.4 µM). The “diameter of the inhibition zone (DIZ)” value in the test with Pseudomonas aeruginosa [23] is “inactive”.
On to GENTAMICIN, for which the values for the inhibition zone (IZ) in the test on Staphylococcus aureus [15], in the test with Bacillus subtilis [16] and in the test on Bacillus subtilis [17] were 21 mm, 19 mm and 19 mm, respectively.
As for `CSc1nc2ccc(NC(=O)/C=C/c3ccccc3)cc2c(=O)n1Cc1ccccc1`, the outcome with Candida albicans [1] and in the test with Candida albicans [2] was inactive. In addition, the GI50 in test [3] stood at 1.7 µM; in test [4], 2.9 µM; with MDA-MB-468 it was 2.2 µM; in test [6], 1.9 µM; in test [7], 3 µM; in test [8] it was 51.6 µM. Further, the GI50 was 2.4 µM in test [9], 34.5 µM in test [10], 1.1 µM in test [11] and 1.6 µM in test [13]. Moreover, the TGI in test [3] is 80.9 µM; in [4], over 100 µM; in test [6] it was 68.4 µM; in [7], over 100 µM; in test [8] it was over 100 µM; in test [9], 26.9 µM. In addition, the TGI in test [10], in test [11] and in test [13] was over 100 µM each time. Besides, the values for the IC50 at Dihydrofolate reductase [5] and at Dihydrofolate reductase [12] were 0.6 µM and 1 µM, respectively. Moreover, the “diameter of the inhibition zone (DIZ)” value in the test with Escherichia coli [19], in the test on Micrococcus luteus [21], with Staphylococcus aureus [22], with Pseudomonas aeruginosa [23] and with Bacillus subtilis [17] was “inactive” throughout.
`C=CCSc1nc2ccc(NC(=O)/C=C/c3ccccc3)cc2c(=O)n1Cc1ccccc1`: the result in the test with Candida albicans [1] and in the test on Candida albicans [2] was inactive. In addition, the IC50 against Dihydrofolate reductase [5] stood at 0.7 µM; against Dihydrofolate reductase [12], 0.5 µM. Also, the zone of inhibition at 200 µg/disc in the test with Escherichia coli [19] came to 18 mm; in the test with Staphylococcus aureus [22], 16 mm; in the test on Bacillus subtilis [17], 18 mm. In addition, the MIC in the test on Bacillus subtilis [14], in the test on Escherichia coli [20], in the test on Staphylococcus aureus [18] and with Micrococcus luteus [24] was 8 mg/L (≈ 17.6 µM) throughout. In the test with Micrococcus luteus [21], this compound displayed a diameter of the inhibition zone (DIZ) of 18 mm. Further, the “diameter of the inhibition zone (DIZ)” value in the test with Pseudomonas aeruginosa [23] is “inactive”.
In the test on Pseudomonas aeruginosa [25], `O=c1c2cc([N+](=O)[O-])ccc2nc(SC/C=C/c2ccccc2)n1Cc1ccccc1` yielded an MIC of 16 mg/L (≈ 37.3 µM). In addition, the outcome in the test on Candida albicans [1] and with Candida albicans [2] was inactive. Moreover, the IC50 against Dihydrofolate reductase [5] is 5 µM; at Dihydrofolate reductase [12], 3 µM. Further, the zone of inhibition at 200 µg/disc was found to be 21 mm in the test on Escherichia coli [19] and 17 mm in the test with Pseudomonas aeruginosa [23] (read-out: DIZ). For the same compound, the “diameter of the inhibition zone (DIZ)” value with Micrococcus luteus [21], in the test with Staphylococcus aureus [22] and in the test with Bacillus subtilis [17] was “inactive” in each case.

Source of the values: ChEMBL document CHEMBL1156232, “Non-classical antifolates. Part 2: synthesis, biological evaluation, and molecular modeling study of some new 2,6-substituted-quinazolin-4-ones” (Bioorg Med Chem, 2010).
